Assay results published in patent publication US20230117034A1, “PYRAZOLOTRIAZINES” (Bayer Aktiengesellschaft, priority 2019, published 2023).

Experiments:
[1] = tested on: CAL-120, human breast adenocarcinoma cells; assay: Proliferation assay CAL-120 (crystal violet, 4 days); type: cell-based; settings: Homo sapiens, CAL-120, 96 h, CAL-120 cells, median, read-out: Prolif-CAL-120, IC50-[mol/l] (median)
How it was run: (§1)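 Plated 4,000 cells/well, 10% FCS; 24 h later treated 0.01-10 µmol/L cpd (DMSO 0.1%), 4 d. Fix glutaraldehyde, stain 0.1% crystal violet pH 3.0, elute acetic acid, A595. Normalized to t0 plate/untreated; 4-param IC50.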

[2] = tested on: BRCA1 mRNA expression in MDA-MB-231 cells; assay: qRT-PCR assay: BRCA1 mRNA expression in MDA-MB-231; type: cell-based, human; settings: Homo sapiens, MDA-MB-231, Inhibition of BRCA1 mRNA expression in MDA-MB-231 cells; median; read-out: RTqPCR-MDA-MB-231, IC50, BRCA1 (median)
How it was run: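 Read-out is RT-qPCR with expression normalised to the GAPDH housekeeping gene. Before RNA isolation, plated cells (200,000 per well, 24 h attachment) received test substances continuously over 24 h, and 600 ng of RNA served as cDNA template.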

[3] = tested on: MDA-MB-231, human breast cancer cells; assay: Proliferation assay MDA-MB-231 (crystal violet, 4 days); type: cell-based; settings: Homo sapiens, MDA-MB-231, 96 h, MDA-MB-231 cells, median, read-out: Prolif-MDA MB-231, IC50-[mol/l] (median)
How it was run: as §1

| Compound | IC50 [1] [nM] | IC50 [2] [nM] | IC50 [3] [nM] |
| --- | --- | --- | --- |
| CN(C)C1CCN(c2nc(NCc3nc4ccccc4[nH]3)n3ncc(Br)c3n2)CC1 [Example 201, N-[(1H-benzimidazol-2-yl)methyl]-8-bromo-2-[4-(dimethylamino)piperidin-1-yl]pyrazolo[1,5-a][1,3,5]triazin-4-amine] | 126 | 145 | 290 |
| CCN(C)c1nc(NCc2nc3ccccc3[nH]2)n2ncc(Br)c2n1 [Example 233, N4-(1H-benzimidazol-2-ylmethyl)-8-bromo-N2-ethyl-N2-methyl-pyrazolo[1,5-a][1,3,5]triazine-2,4-diamine] | 158 | – | 145 |
| OCCNc1nc(NCc2nc3ccccc3[nH]2)n2ncc(Br)c2n1 [Example 228, 2-[(4-{[(1H-benzimidazol-2-yl)methyl]amino}-8-bromopyrazolo[1,5-a][1,3,5]triazin-2-yl)amino]ethan-1-ol] | 273 | – | 434 |
| OC1(C(F)(F)F)CCN(c2nc(NCc3nc4ccccc4[nH]3)n3ncc(Br)c3n2)C1 (centres unmarked) [Example 200, 1-[4-(1H-benzimidazol-2-ylmethylamino)-8-bromo-pyrazolo[1,5-a][1,3,5]triazin-2-yl]-3-(trifluoromethyl)pyrrolidin-3-ol] | 95.8 | 66.2 | 152 |
| CN(C)[C@@H]1CCN(c2nc(NCc3nc4ccccc4[nH]3)n3ncc(Br)c3n2)C1 [Example 178, N-[(1H-benzimidazol-2-yl)methyl]-8-bromo-2-[(3R)-3-(dimethylamino)pyrrolidin-1-yl]pyrazolo[1,5-a][1,3,5]triazin-4-amine] | 96.8 | – | 501 |
| CO[C@@H]1CCN(c2nc(NCc3nc4ccccc4[nH]3)n3ncc(Br)c3n2)C1 [Example 223, N-[(1H-benzimidazol-2-yl)methyl]-8-bromo-2-[(3R)-3-methoxypyrrolidin-1-yl]pyrazolo[1,5-a][1,3,5]triazin-4-amine] | 270 | 86.5 | 349 |
| CC(C)c1cnn2c(NCc3nc4ccccc4[nH]3)nc(Nc3ccncc3)nc12 [Example 14, N^4-[(1H-benzimidazol-2-yl)methyl]-8-(propan-2-yl)-N^2-(pyridin-4-yl)pyrazolo[1,5-a][1,3,5]triazine-2,4-diamine] | – | < 30 | 47 |
| COCCNc1nc(NCc2nc3ccccc3[nH]2)n2ncc(Br)c2n1 [Example 230, N4-(1H-benzimidazol-2-ylmethyl)-8-bromo-N2-(2-methoxyethyl)pyrazolo[1,5-a][1,3,5]triazine-2,4-diamine] | 313 | – | 261 |
| Brc1cnn2c(NCc3nc4ccccc4[nH]3)nc(NCCN3CCCC3)nc12 [Example 235, N4-(1H-benzimidazol-2-ylmethyl)-8-bromo-N2-(2-pyrrolidin-1-ylethyl)pyrazolo[1,5-a][1,3,5]triazine-2,4-diamine] | 274 | – | 315 |
| CN(CCN1CCCC1)c1nc(NCc2nc3ccccc3[nH]2)n2ncc(Br)c2n1 [Example 239, N4-(1H-benzimidazol-2-ylmethyl)-8-bromo-N2-methyl-N2-(2-pyrrolidin-1-ylethyl)pyrazolo[1,5-a][1,3,5]triazine-2,4-diamine] | 436 | – | 561 |
| CN(C)[C@H]1CCN(c2nc(NCc3nc4ccccc4[nH]3)n3ncc(Br)c3n2)C1 [Example 177, N-[(1H-benzimidazol-2-yl)methyl]-8-bromo-2-[(3S)-3-(dimethylamino)pyrrolidin-1-yl]pyrazolo[1,5-a][1,3,5]triazin-4-amine] | 68.8 | – | 332 |
| Cc1cc(-c2cnn3c(NCc4nc5ccccc5[nH]4)nc(N4CCN(C)CC4)nc23)ccn1 [Example 243, N-[(1H-benzimidazol-2-yl)methyl]-2-(4-methylpiperazin-1-yl)-8-(2-methylpyridin-4-yl)pyrazolo[1,5-a][1,3,5]triazin-4-amine] | 3670 | – | – |
